Where two headings read alike, the source gives them in different places.
Assays:
[1] = tested on: Mycosphaerella graminicola; Anamorph: Septoria tritici; experiment: Leaf Blotch of Wheat (SEPTTR) disease control; type: in vivo; settings: for pest or weed control at 100 ppm / pest or weed control at 121.5 g/ha: Zymoseptoria tritici; for pest or weed control at 121.5 g/ha: rate 121.5 g/H
In short: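 Percent disease control is derived from Septoria tritici leaf blotch severity (0 to 100 percent) on treated versus untreated wheat seedlings. Plants get fungicide spray to run-off, with inoculation either preceding or following application, then humid incubation at 20° C.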

[2] = tested on: Puccinia triticina; Synonym: Puccinia recondite f. Sp. Tritici; experiment: Wheat Brown Rust (PUCCRT) disease control; type: in vivo; settings: for pest or weed control at 100 ppm / pest or weed control at 121.5 g/ha: Puccinia triticina, topical; for pest or weed control at 121.5 g/ha: rate 121.5 g/H
In short: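 Brown rust on first-leaf Yuma wheat: spore inoculation before or after spray application (acetone/Triton X-100 solution, or EC with Trycol in track spray), overnight 100% RH at 22 °C, disease developed at 24 °C. Severity scored 0–100% and converted to percent control against untreated.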

[3] = 24 h, 1 Day Protectant, rate 100 ppm, read-out: SEPTTR 1 DP disease control
[4] = 24 h, 1 Day Protectant, read-out: SEPTTR 1 DP disease control
[5] = 72 h, 3 Day Curative, rate 100 ppm, read-out: SEPTTR 3 DC disease control
[6] = 72 h, 3 Day Curative, read-out: SEPTTR 3 DC disease control
[7] = 24 h, 1 Day Protectant, rate 100 ppm, read-out: PUCCRT 1 DP disease control
[8] = 24 h, 1 Day Protectant, read-out: PUCCRT 1 DP disease control
[9] = 72 h, 3 Day Curative, rate 100 ppm, read-out: PUCCRT 3 DC disease control
[10] = 72 h, 3 Day Curative, read-out: PUCCRT 3 DC disease control

| SMILES | pest or weed control at 100 ppm [1, 3] | pest or weed control at 121.5 g/ha [1, 4] | pest or weed control at 100 ppm [1, 5] | pest or weed control at 121.5 g/ha [1, 6] | pest or weed control at 100 ppm [2, 7] | pest or weed control at 121.5 g/ha [2, 8] | pest or weed control at 100 ppm [2, 9] | pest or weed control at 121.5 g/ha [2, 10] | SEPTTR 1 DP disease control ([1]; 1 Day Protectant, rate 100 ppm) | SEPTTR 3 DC disease control ([1]; 3 Day Curative, rate 100 ppm) | PUCCRT 1 DP disease control ([2]; 1 Day Protectant, rate 100 ppm) |
| --- | --- | --- | --- | --- | --- | --- | --- | --- | --- | --- | --- |
| COc1ccc(C[C@H]2CCC[C@H](NC(=O)c3nccc(OC)c3OC(C)=O)C(=O)O[C@@H](C)[C@@H]2OCC2CC2)cc1 [Compound F72] | 80 to 100% | 80 to 100% | 80 to 100% | 80 to 100% | 80 to 100% | 80 to 100% | 80 to 100% | 0 to 80% |  |  |  |
| CCO[C@@H]1[C@@H](Cc2ccccc2)CCC[C@H](NC(=O)c2nccc(OC)c2O)C(=O)O[C@H]1C [Compound F23] | 80 to 100% |  | 80 to 100% |  | 80 to 100% |  | 80 to 100% |  |  |  |  |
| COc1ccnc(C(=O)N[C@H]2CCC[C@H](CC(F)F)[C@@H](Oc3ccccc3)[C@H](C)OC2=O)c1O [Compound F53] | 80 to 100% |  | 0 to 80% |  | 80 to 100% |  | 80 to 100% |  |  |  |  |
| CCCO[C@@H]1[C@@H](CC2CCCC2)CCC[C@H](NC(=O)c2nccc(OC)c2OC(C)=O)C(=O)O[C@H]1C [Compound F74] | 80 to 100% | 80 to 100% | 80 to 100% | 80 to 100% | 80 to 100% | 80 to 100% | 80 to 100% | 0 to 80% |  |  |  |
| COCC[C@H]1CCC[C@H](NC(=O)c2nccc(OC)c2O)C(=O)O[C@@H](C)[C@@H]1OCC(C)C [Compound F47] | 80 to 100% |  | 80 to 100% |  | 80 to 100% |  | 80 to 100% |  |  |  |  |
| COc1ccnc(C(=O)N[C@H]2CCC[C@H](CCSC)[C@@H](OCC(C)C)[C@H](C)OC2=O)c1O [Compound F46] | 0 to 80% |  | 80 to 100% |  | 80 to 100% |  | 80 to 100% |  |  |  |  |
| CCOCC(=O)OCOc1c(OC)ccnc1C(=O)N[C@H]1CCC[C@H](CCC(C)C)[C@@H](Oc2ccccc2)[C@H](C)OC1=O [Compound F158] | 80 to 100% | 80 to 100% | 80 to 100% | 80 to 100% | 80 to 100% | 80 to 100% | 80 to 100% | 0 to 80% |  |  |  |
| COc1ccnc(C(=O)N[C@H]2CCC[C@H](CCOc3ccccc3)[C@@H](OCC3CC3)[C@H](C)OC2=O)c1OCOC(C)=O [Compound F142] | 80 to 100% | 80 to 100% | 80 to 100% | 0 to 80% | 80 to 100% | 80 to 100% | 80 to 100% | 80 to 100% |  |  |  |
| COc1ccnc(C(=O)N[C@H]2CCC[C@@H]3CCO[C@H]3[C@H](C)OC2=O)c1OCOC(C)=O [Compound F143] | 0 to 80% | 0 to 80% | 0 to 80% |  | 80 to 100% | 80 to 100% | 80 to 100% | 80 to 100% |  |  |  |
| CCOCC(=O)OCOc1c(OC)ccnc1C(=O)N[C@H]1CCC[C@H](Cc2ccc(OC)cc2)[C@@H](OCC2CC2)[C@H](C)OC1=O [Compound F177] | 80 to 100% | 80 to 100% | 80 to 100% | 80 to 100% | 80 to 100% | 80 to 100% | 80 to 100% | 80 to 100% |  |  |  |
| COc1ccnc(C(=O)N[C@H]2CCC[C@H](CCSC)[C@@H](OCC(C)C)[C@H](C)OC2=O)c1OCOC(C)=O [Compound F131] | 80 to 100% | 0 to 80% | 80 to 100% | 80 to 100% | 80 to 100% | 80 to 100% | 80 to 100% | 80 to 100% |  |  |  |
| COc1ccnc(C(=O)N[C@H]2CCC[C@H](Cc3ccc(F)cc3)[C@@H](Oc3ccccc3)[C@H](C)OC2=O)c1OC(C)=O [Compound F68] | 80 to 100% | 80 to 100% | 80 to 100% | 80 to 100% | 80 to 100% | 80 to 100% | 80 to 100% | 0 to 80% |  |  |  |
| COCC[C@H]1CCC[C@H](NC(=O)c2nccc(OC)c2O)C(=O)O[C@@H](C)[C@@H]1Oc1ccccc1 [Compound F45] | 80 to 100% |  | 80 to 100% |  | 80 to 100% |  | 80 to 100% |  |  |  |  |
| CCOCC(=O)OCOc1c(OC)ccnc1C(=O)N[C@H]1CCC[C@H](CC2CCCC2)[C@@H](Oc2ccccc2)[C@H](C)OC1=O [Compound F176] | 80 to 100% | 80 to 100% | 80 to 100% | 80 to 100% | 80 to 100% | 80 to 100% | 80 to 100% | 0 to 80% |  |  |  |
| CCOCC(=O)OCOc1c(OC)ccnc1C(=O)N[C@H]1CCC[C@H](Cc2ccc(F)cc2)[C@@H](OC(=O)C(C)C)[C@H](C)OC1=O [Compound F171] | 80 to 100% | 80 to 100% | 80 to 100% | 80 to 100% | 80 to 100% | 80 to 100% | 80 to 100% | 0 to 80% |  |  |  |
| COc1ccnc(C(=O)N[C@H]2CCC[C@H](Cc3ccc(C)cc3)[C@@H](OCCCC(F)(F)F)[C@H](C)OC2=O)c1O [Compound F55] |  |  |  |  |  |  |  |  | A (80-100) | B (More than 0-Less than 80) | A (80-100) |
| COc1ccnc(C(=O)N[C@H]2CCC[C@H](CCBr)[C@@H](Oc3ccccc3)[C@H](C)OC2=O)c1OCOC(C)=O [Compound F135] | 80 to 100% |  | 80 to 100% |  | 80 to 100% |  | 80 to 100% |  |  |  |  |
| CCOCC(=O)OCOc1c(OC)ccnc1C(=O)N[C@H]1CCC[C@H](Cc2ccc(F)cc2)[C@@H](OCC(F)F)[C@H](C)OC1=O [Compound F169] | 80 to 100% | 80 to 100% | 0 to 80% | 80 to 100% | 80 to 100% | 80 to 100% | 80 to 100% | 80 to 100% |  |  |  |
| CCOCC(=O)OCOc1c(OC)ccnc1C(=O)N[C@H]1CCC[C@H](Cc2ccc(OC)cc2)[C@@H](OCC(C)C)[C@H](C)OC1=O [Compound F179] | 80 to 100% | 80 to 100% | 80 to 100% | 80 to 100% | 80 to 100% | 80 to 100% | 80 to 100% | 0 to 80% |  |  |  |
| COc1ccnc(C(=O)N[C@H]2CCC[C@H](Cc3ccc(F)cc3F)[C@@H](OCc3ccccc3)[C@H](C)OC2=O)c1OCOC(C)=O [Compound F137] | 80 to 100% | 80 to 100% | 80 to 100% | 80 to 100% | 80 to 100% | 80 to 100% | 80 to 100% | 0 to 80% |  |  |  |
| COc1ccnc(C(=O)N[C@H]2CCC[C@H](CCOCC3CC3)[C@@H](OCC3CC3)[C@H](C)OC2=O)c1O [Compound F54] | 0 to 80% |  | 80 to 100% |  | 80 to 100% |  | 80 to 100% |  |  |  |  |
| COc1ccc(C[C@H]2CCC[C@H](NC(=O)c3nccc(OC)c3O)C(=O)O[C@@H](C)[C@@H]2OC(=O)C2CCCC2)cc1 [Compound F28] | 80 to 100% |  | 0 to 80% |  | 80 to 100% |  |  |  |  |  |  |
| COc1ccnc(C(=O)N[C@H]2CCC[C@H](CC3CCCC3)[C@@H](OCC(C)C)[C@H](C)OC2=O)c1OCOC(C)=O [Compound F123] | 80 to 100% | 80 to 100% | 80 to 100% | 80 to 100% | 80 to 100% | 80 to 100% | 80 to 100% | 0 to 80% |  |  |  |
| COc1ccnc(C(=O)N[C@H]2CCC[C@H](Cc3ccc(F)cc3)[C@@H](OCC(F)F)[C@H](C)OC2=O)c1OC(C)=O [Compound F69] | 80 to 100% | 80 to 100% | 80 to 100% | 80 to 100% | 80 to 100% | 80 to 100% | 80 to 100% | 80 to 100% |  |  |  |

From patent publication US9265253B2, “Use of macrocyclic picolinamides as fungicides” (DOW AGROSCIENCES LLC, priority 2013, dated 2016)
